{
  "source": "patent US20160228575A1",
  "about": "“NARINGENIN COMPLEXES AND METHODS OF USE THEREOF” (THE GENERAL HOSPITAL CORPORATION, priority 2008, published 2016)",
  "key": {"[1]": {"test_system": "ACAT2", "test": "ACAT2 transcription by qPCR in infected Huh7.5.1 cells", "type": "cell-based, human", "settings": "naringenin 24 hours, infected Huh-7.5.1 cells"}, "[2]": {"test_system": "LXRα", "test": "LXRα transcription in infected Huh7.5.1 cells", "type": "cell-based, human", "settings": "short term 24 hours stimulation of Huh7.5.1 cells", "description": "Virus samples collected in each experiment were filtered with a 0.45 μm filter and a volume of 100 μL for each sample was heated at 95° C. for 45 min. The reverse transcription reaction step was performed on a Mastercycler epgrdientS (Eppendorf) instrument using Omniscript and Sensiscript RT Kits (Qiagen). Real time PCR was performed on a Light Cycler LC-24 (Idaho Technology), using SuperScript™ III Platinum® CellsDirect Two-Step qRT-PCR Kits (Invitrogen) for quantitative PCR. For reverse transcription step, 2 μL of sample without RNA extraction were used. For real time PCR, 1 μL of the reverse transcription reactions was used. All reactions were performed according to the manufacturer's instructions using the primers detailed in Table 1.\nPPARα and LXRα are ligand-activated transcription factors which control much of the fasted-to-fed transition and were previously shown to be important in the development of inflammation and insulin resistance. […] Following a short term 24 hours stimulation of Huh7.5.1 cells PPARα transcription increased by 86%, while LXRα was decreased by 25%. PPARα is the target of fibrates and plays a major role in the downregulation of inflammation, increasing sensitivity to insulin, and modulating dyslipidemia."}, "[3]": {"test_system": "HCV (JFH-1) infection of naïve Huh7.5.1 cells", "test": "HCV infectivity of cell culture supernatant on naïve Huh7.5.1 cells", "type": "cell-based, Hepatitis C virus", "settings": "Hepatitis C virus, Huh-7.5.1; supernatant after 24 hours stimulation; naringenin 200 μM, brefeldin A 2.5 μg/ml", "description": "The infectivity of the secreted HCV particles was measured as previously described (8). Naïve Huh7.5.1 cells were grown to 80% confluence and exposed to cell culture supernatants diluted 10-fold in culture media. Following 1 hour incubation at 37° C., the media was replaced, and the cells were cultured for 3 additional days. Levels of HCV infection were determined by immunofluorescence staining for HCV core protein. The viral titer is expressed as focus forming units per milliliter of supernatant (ffu/ml)."}},
  "data": [
    {"smiles": "O=C1C[C@@H](c2ccc(O)cc2)Oc2cc(O)cc(O)c21", "note": "[naringenin]", "values": [
      {"measurement": "reduction of ACAT2 transcription", "setting": "[1]", "value": "55%±7%"},
      {"measurement": "decrease of LXRα transcription", "setting": "[2]", "value": 25, "unit": "%"},
      {"measurement": "inhibition at 200 µM", "setting": "[3]", "value": 79, "unit": "%"}
    ]}
  ]
}
